Laboratory results taken from patent publication US9499550B2 (BRISTOL-MYERS SQUIBB COMPANY, priority 2012, dated 2016).
Read-outs that look alike come from different tables or passages of the source.

Legend:
[1] = test system: HCV genotype 1b (Con1) replicon in HUH-7 cells; assay: HCV replicon luciferase reporter assay, genotype 1b; assay type: cell-based; conditions: Hepatitis C virus, Huh-7, 72 h, HCV genotype 1b replicon luciferase, 3 days incubation
How it was run: (§1)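 Replicon inhibition for both genotypes was measured as Renilla luciferase signal (EnduRen, 7.5 μM final, 2 h) after 3-day, 37° C exposure of replicon-bearing HUH-7 cells in 4% FCS DMEM, 0.5% DMSO. The 1b construct carries S1179I; the 1a H77 construct carries P1496L and S2204I. Twenty-point, 3-fold dilutions were fitted four-parametrically for EC50, and CC50 was taken from multiplexed Cell Titer-Blue.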

[2] = test system: HCV genotype 1a (H77 strain) replicon in HUH-7 cells; assay: HCV replicon luciferase reporter assay, genotype 1a; assay type: cell-based; conditions: Hepatitis C virus, Huh-7, 72 h, HCV genotype 1a replicon luciferase, 3 days incubation
How it was run: as §1

Row | Structure (SMILES) | EC50 ([1]; read-out: LE_1b (EC50, range)) [nM] | EC50 ([2]; read-out: LE_1a (EC50, range)) [nM] | EC50 ([1]; read-out: LE_1b (EC50)) [nM] | EC50 ([2]; read-out: LE_1a (EC50)) [nM] | EC50 ([1]; GETYPE1B, read-out: LE_1b (EC50, range)) [nM] | EC50 ([2]; GETYPE1A, read-out: LE_1a (EC50, range)) [nM]
1 | CCn1nc(O[C@@H]2C[C@H]3C(=O)N[C@]4(C(=O)NS(=O)(=O)C5CC5)C[C@H]4/C=C\CC[C@H](C)C[C@@H](C)[C@H](NC(=O)OC(C)(C)C(F)(F)F)C(=O)N3C2)c2ccccc2c1=O [Compound 5066, 1,1,1-trifluoro-2-methylpropan-2-yl((2R,6S,7R,9S,13aS,14aR,16aS,Z)-14a-((cyclopropylsulfonyl)carbamoyl)-2-((3-ethyl-4-oxo-3,4-dihydrophthalazin-1-yl)oxy)-7,9-dimethyl-5,16-dioxo-1,2,3,5,6,7,8,9,10,11,13a,14,14a,15,16,16a-hexadecahydrocyclopropa[e]pyrrolo[1,2-a][1,4]diazacyclopentadecin-6-yl)carbamate] | > 87.4 | > 87.4 | – | – | – | –
2 | CCn1nc(O[C@@H]2C[C@H]3C(=O)N[C@]4(C(=O)NS(=O)(=O)C5CC5)C[C@H]4/C=C\CC[C@@H](C)C[C@@H](C)[C@H](NC(=O)OC(C)(C)C(F)(F)F)C(=O)N3C2)c2ccccc2c1=O [Compound 5067, 1,1,1-trifluoro-2-methylpropan-2-yl((2R,6S,7R,9R,13aS,14aR,16aS,Z)-14a-((cyclopropylsulfonyl)carbamoyl)-2-((3-ethyl-4-oxo-3,4-dihydrophthalazin-1-yl)oxy)-7,9-dimethyl-5,16-dioxo-1,2,3,5,6,7,8,9,10,11,13a,14,14a,15,16,16a-hexadecahydrocyclopropa[e]pyrrolo[1,2-a][1,4]diazacyclopentadecin-6-yl)carbamate] | 4.82 to 103 | 4.82 to 103 | – | – | – | –
3 | [2H]C([2H])([2H])C(OC(=O)N[C@@H]1C(=O)N2C[C@H](Oc3nn(CC)c(=O)c4ccccc34)C[C@H]2C(=O)N[C@]2(C(=O)NS(=O)(=O)C3CC3)C[C@H]2/C=C\CC[C@H](C)C[C@H]1C)(C([2H])([2H])[2H])C(F)(F)F [Compound 5068] | > 87.4 | > 87.4 | – | – | – | –
4 | [2H]C([2H])([2H])C(OC(=O)N[C@@H]1C(=O)N2C[C@H](Oc3nn(CC)c(=O)c4ccccc34)C[C@H]2C(=O)N[C@]2(C(=O)NS(=O)(=O)C3CC3)C[C@H]2/C=C\CC[C@@H](C)C[C@H]1C)(C([2H])([2H])[2H])C(F)(F)F [Compound 5069] | 4.82 to 103 | 4.82 to 103 | 7.21 | 14.9 | – | –
5 | CCn1nc(O[C@@H]2C[C@H]3C(=O)N[C@]4(C(=O)NS(=O)(=O)C5CC5)C[C@H]4/C=C\CC[C@@H](C)C[C@@H](C)[C@H](NC(=O)O[C@@H]4C[C@@H]5C[C@@H]5C4)C(=O)N3C2)c2ccccc2c1=O [Compound 5070, (1R,3r,5S)-bicyclo[3.1.0]hexan-3-yl((2R,6S,7R,9R,13aS,14aR,16aS,Z)-14a-((cyclopropylsulfonyl)carbamoyl)-2-((3-ethyl-4-oxo-3,4-dihydrophthalazin-1-yl)oxy)-7,9-dimethyl-5,16-dioxo-1,2,3,5,6,7,8,9,10,11,13a,14,14a,15,16,16a-hexadecahydrocyclopropa[e]pyrrolo[1,2-a][1,4]diazacyclopentadecin-6-yl)carbamate] | < 5.46 | 4.82 to 103 | – | – | – | –
6 | CCn1nc(O[C@@H]2C[C@H]3C(=O)N[C@]4(C(=O)NS(=O)(=O)C5CC5)C[C@H]4/C=C\CC[C@H](C)C[C@@H](C)[C@H](NC(=O)NC(C)(C)C)C(=O)N3C2)c2ccccc2c1=O [Compound 5071, (2R,6S,7R,9S,13aS,14aR,16aS,Z)-6-(3-(tert-butyl)ureido)-N-(cyclopropylsulfonyl)-2-((3-ethyl-4-oxo-3,4-dihydrophthalazin-1-yl)oxy)-7,9-dimethyl-5,16-dioxo-1,2,3,5,6,7,8,9,10,11,13a,14,14a,15,16,16a-hexadecahydrocyclopropa[e]pyrrolo[1,2-a][1,4]diazacyclopentadecine-14a-carboxamide] | > 87.4 | > 87.4 | 1000 | ≥ 1000 | – | –
7 | CCn1nc(O[C@@H]2C[C@H]3C(=O)N[C@]4(C(=O)NS(=O)(=O)C5CC5)C[C@H]4/C=C\CC[C@@H](C)C[C@@H](C)[C@H](NC(=O)NC(C)(C)C)C(=O)N3C2)c2ccccc2c1=O [Compound 5072, (2R,6S,7R,9R,13aS,14aR,16aS,Z)-6-(3-(tert-butyl)ureido)-N-(cyclopropylsulfonyl)-2-((3-ethyl-4-oxo-3,4-dihydrophthalazin-1-yl)oxy)-7,9-dimethyl-5,16-dioxo-1,2,3,5,6,7,8,9,10,11,13a,14,14a,15,16,16a-hexadecahydrocyclopropa[e]pyrrolo[1,2-a][1,4]diazacyclopentadecine-14a-carboxamide] | 4.82 to 103 | > 87.4 | – | – | – | –
8 | CCn1nc(O[C@@H]2C[C@H]3C(=O)N[C@]4(C(=O)NS(=O)(=O)C5CC5)C[C@H]4/C=C\CC[C@H](C)C[C@@H](C)[C@H](NC(=O)c4ccc(N(C)C)cc4)C(=O)N3C2)c2ccccc2c1=O [Compound 5073, (2R,6S,7R,9S,13aS,14aR,16aS,Z)—N-(cyclopropylsulfonyl)-6-(4-(dimethylamino)benzamido)-2-((3-ethyl-4-oxo-3,4-dihydrophthalazin-1-yl)oxy)-7,9-dimethyl-5,16-dioxo-1,2,3,5,6,7,8,9,10,11,13a,14,14a,15,16,16a-hexadecahydrocyclopropa[e]pyrrolo[1,2-a][1,4]diazacyclopentadecine-14a-carboxamide] | > 87.4 | > 87.4 | – | – | – | –
9 | CCn1nc(O[C@@H]2C[C@H]3C(=O)N[C@]4(C(=O)NS(=O)(=O)C5CC5)C[C@H]4/C=C\CC[C@@H](C)C[C@@H](C)[C@H](NC(=O)c4ccc(N(C)C)cc4)C(=O)N3C2)c2ccccc2c1=O [Compound 5074, (2R,6S,7R,9R,13aS,14aR,16aS,Z)—N-(cyclopropylsulfonyl)-6-(4-(dimethylamino)benzamido)-2-((3-ethyl-4-oxo-3,4-dihydrophthalazin-1-yl)oxy)-7,9-dimethyl-5,16-dioxo-1,2,3,5,6,7,8,9,10,11,13a,14,14a,15,16,16a-hexadecahydrocyclopropa[e]pyrrolo[1,2-a][1,4]diazacyclopentadecine-14a-carboxamide] | 4.82 to 103 | 4.82 to 103 | – | – | – | –
10 | CCn1nc(O[C@@H]2C[C@H]3C(=O)N[C@]4(C(=O)NS(=O)(=O)C5CC5)C[C@H]4/C=C\CC[C@H](C)C[C@@H](C)[C@H](NC(=O)C(=O)N(C)C)C(=O)N3C2)c2ccccc2c1=O [Compound 5075, N1-((2R,6S,7R,9S,13aS,14aR,16aS,Z)-14a-((cyclopropylsulfonyl)carbamoyl)-2-((3-ethyl-4-oxo-3,4-dihydrophthalazin-1-yl)oxy)-7,9-dimethyl-5,16-dioxo-1,2,3,5,6,7,8,9,10,11,13a,14,14a,15,16,16a-hexadecahydrocyclopropa[e]pyrrolo[1,2-a][1,4]diazacyclopentadecin-6-yl)-N2,N2-dimethyloxalamide] | > 87.4 | > 87.4 | 1000 | ≥ 1000 | – | –
11 | CCn1nc(O[C@@H]2C[C@H]3C(=O)N[C@]4(C(=O)NS(=O)(=O)C5CC5)C[C@H]4/C=C\CC[C@@H](C)C[C@@H](C)[C@H](NC(=O)C(=O)N(C)C)C(=O)N3C2)c2ccccc2c1=O [Compound 5076, N1-((2R,6S,7R,9R,13aS,14aR,16aS,Z)-14a-((cyclopropylsulfonyl)carbamoyl)-2-((3-ethyl-4-oxo-3,4-dihydrophthalazin-1-yl)oxy)-7,9-dimethyl-5,16-dioxo-1,2,3,5,6,7,8,9,10,11,13a,14,14a,15,16,16a-hexadecahydrocyclopropa[e]pyrrolo[1,2-a][1,4]diazacyclopentadecin-6-yl)-N2,N2-dimethyloxalamide] | > 87.4 | > 87.4 | – | – | – | –
12 | CCn1nc(O[C@@H]2C[C@H]3C(=O)N[C@]4(C(=O)NS(=O)(=O)C5(CF)CC5)C[C@H]4/C=C\CC[C@H](C)C[C@@H](C)[C@H](NC(=O)OC(C)(C)C(F)(F)F)C(=O)N3C2)c2ccccc2c1=O [Compound 5077] | – | – | – | – | 4.82 to 103 | 4.82 to 103
13 | CCCOc1cnc(O[C@@H]2C[C@H]3C(=O)N[C@]4(C(=O)NS(=O)(=O)C5(C)CC5)C[C@H]4/C=C\CC[C@H](C)C[C@@H](C)[C@H](NC(=O)OC(C)(C)C)C(=O)N3C2)c2ccccc12 [Compound 5078, tert-butyl ((2R,6S,7R,9S,13aS,14aR,16aS,Z)-7,9-dimethyl-14a-(((1-methylcyclopropyl)sulfonyl)carbamoyl)-5,16-dioxo-2-((4-propoxyisoquinolin-1-yl)oxy)-1,2,3,5,6,7,8,9,10,11,13a,14,14a,15,16,16a-hexadecahydrocyclopropa[e]pyrrolo[1,2-a][1,4]diazacyclopentadecin-6-yl)carbamate] | 4.82 to 103 | 4.82 to 103 | 8.73 | 28.9 | – | –
14 | CCCOc1cnc(O[C@@H]2C[C@H]3C(=O)N[C@]4(C(=O)NS(=O)(=O)C5(C)CC5)C[C@H]4/C=C\CC[C@@H](C)C[C@@H](C)[C@H](NC(=O)OC(C)(C)C)C(=O)N3C2)c2ccccc12 [Compound 5079, tert-butyl ((2R,6S,7R,9R,13aS,14aR,16aS,Z)-7,9-dimethyl-14a-(((1-methylcyclopropyl)sulfonyl)carbamoyl)-5,16-dioxo-2-((4-propoxyisoquinolin-1-yl)oxy)-1,2,3,5,6,7,8,9,10,11,13a,14,14a,15,16,16a-hexadecahydrocyclopropa[e]pyrrolo[1,2-a][1,4]diazacyclopentadecin-6-yl)carbamate] | < 5.46 | < 5.46 | – | – | – | –
